According to patent US9101638B2, “Boronic acid derivatives and therapeutic uses thereof” (Rempex Pharmaceuticals, Inc., priority 2013, dated 2015):

Experiments:
KP1005 (CTX-M-14) = assay: Potentiation of aztreonam, strain KP1005; assay type: cell-based
EC1010 (CMY-6) [1] = assay: Potentiation of aztreonam, strain EC1010; assay type: cell-based
CathepsinA = target: T1, CathepsinA (Homo sapiens, UniProt P10619); assay: Serine protease inhibition: cathepsin A; assay type: biochemical, mammalian; details: Table 8B; read-out: IC50 CathepsinA
T1 construct: purchased R&D Systems 1049-SE
T1 sequence (P10619 29-480): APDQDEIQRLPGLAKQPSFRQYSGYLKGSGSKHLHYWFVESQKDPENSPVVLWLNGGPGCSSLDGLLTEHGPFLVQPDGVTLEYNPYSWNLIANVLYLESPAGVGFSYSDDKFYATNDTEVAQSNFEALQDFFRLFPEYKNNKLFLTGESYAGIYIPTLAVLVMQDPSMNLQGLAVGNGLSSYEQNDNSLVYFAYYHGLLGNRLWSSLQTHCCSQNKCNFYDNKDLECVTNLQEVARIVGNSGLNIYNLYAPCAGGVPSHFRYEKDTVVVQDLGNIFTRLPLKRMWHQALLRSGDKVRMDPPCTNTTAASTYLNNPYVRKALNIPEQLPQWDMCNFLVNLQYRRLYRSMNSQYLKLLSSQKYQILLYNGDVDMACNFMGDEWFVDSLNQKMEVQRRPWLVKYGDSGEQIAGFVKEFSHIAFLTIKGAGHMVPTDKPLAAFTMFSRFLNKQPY
Procedure: (§1) The effect of selected BLIs on the enzymatic activity of some common mammalian serine proteases was evaluated.
(§2) 50 μl of the diluted enzyme was mixed with 50 μl of inhibitor at various concentrations and 50 μl of corresponding buffer (Table 7). Reaction mixtures were incubated for 10 min at 37° C. Subsequently, 50 μl of corresponding substrate (Table 7) was added and absorbance or fluorescence was monitored for 30 min on SpectraMax M2 plate reader (Molecular Devices). 4-(2-Aminoethyl)benzenesulfonyl fluoride hydrochloride (AEBSF) and leupeptin were used as positive controls. Rates of reaction were calculated and presented relative to “no treatment” control.

SHV-12 = SHV-12 (Klebsiella pneumoniae, UniProt P0AD64, E235K/G234S/L31Q); assay: Inhibition of nitrocefin cleavage by purified SHV-12; assay type: biochemical; details: nitrocefin reporter substrate, purified enzyme; read-out: Ki (SHV-12, NCF)
Sequence of SHV-12 (P0AD64 22-286 L31Q/G234S/E235K): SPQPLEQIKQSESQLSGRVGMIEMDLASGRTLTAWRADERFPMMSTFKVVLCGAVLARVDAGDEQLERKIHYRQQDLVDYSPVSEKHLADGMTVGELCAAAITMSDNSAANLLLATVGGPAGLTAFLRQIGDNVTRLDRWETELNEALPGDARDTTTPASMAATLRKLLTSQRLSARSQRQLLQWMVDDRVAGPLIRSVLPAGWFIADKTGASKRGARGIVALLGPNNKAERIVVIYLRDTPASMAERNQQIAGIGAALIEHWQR
Procedure: (§3) Purified enzymes were mixed with various concentrations of inhibitors in reaction buffer and incubated for 10 min at room temperature. Nitrocefin was added and substrate cleavage profiles were recorded at 490 nm every 10 sec for 10 min.

ec308 (SHV-5) [2] = assay: Potentiation of tigemonam, strain ec308; assay type: cell-based; details: minimum BLI concentration inhibiting growth with 4 μg/mL tigemonam
EC1010 (CMY-6) [3] = assay type: cell-based
KP1009 (CTX-M-15) [4] = assay: Potentiation of tigemonam, strain KP1009; details: minimum BLI concentration inhibiting growth with 4 μg/mL tigemonam
ec302 (TEM-10) [5] = assay: Potentiation of aztreonam, strain ec302; assay type: cell-based
CathepsinG = target: T2, CathepsinG (Homo sapiens, UniProt P08311); assay: Serine protease inhibition: cathepsin G; assay type: biochemical, mammalian; details: Table 8B
T2 construct: purchased EMD Millipore 219373
T2 sequence (P08311 21-244): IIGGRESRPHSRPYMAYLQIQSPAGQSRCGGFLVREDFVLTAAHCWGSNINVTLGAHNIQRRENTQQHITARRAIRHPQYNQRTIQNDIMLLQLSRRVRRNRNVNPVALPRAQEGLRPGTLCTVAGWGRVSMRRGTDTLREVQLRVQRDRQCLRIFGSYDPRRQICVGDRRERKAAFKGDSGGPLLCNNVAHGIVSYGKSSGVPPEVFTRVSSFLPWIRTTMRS
Procedure: as §1, §2

P99 = P99 (Enterobacter cloacae, UniProt P05364); assay: Inhibition of nitrocefin cleavage by purified P99; assay type: biochemical; details: nitrocefin reporter substrate, purified enzyme; read-out: Ki (P99, NCF)
Sequence of P99 (P05364 21-381): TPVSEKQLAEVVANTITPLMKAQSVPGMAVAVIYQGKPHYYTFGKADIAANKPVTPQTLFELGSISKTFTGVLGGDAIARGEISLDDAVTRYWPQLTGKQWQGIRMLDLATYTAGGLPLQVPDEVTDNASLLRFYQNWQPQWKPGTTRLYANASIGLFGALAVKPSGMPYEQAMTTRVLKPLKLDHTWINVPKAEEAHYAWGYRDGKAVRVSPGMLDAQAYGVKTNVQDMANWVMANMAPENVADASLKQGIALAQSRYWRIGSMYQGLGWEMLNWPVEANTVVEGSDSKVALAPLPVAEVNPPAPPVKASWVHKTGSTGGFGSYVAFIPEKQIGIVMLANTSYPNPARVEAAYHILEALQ
Procedure: as §3

ec302 (TEM-10) [6] = assay: Potentiation of tigemonam, strain ec302; assay type: cell-based
KP1004 (K-2) = assay: Potentiation of aztreonam, strain KP1004; assay type: cell-based; details: minimum BLI concentration inhibiting growth with 4 μg/mL aztreonam
CTX-M-14 = CTX-M-14 (Escherichia coli, UniProt Q9L5C7); assay: Inhibition of nitrocefin cleavage by purified CTX-M-14; assay type: biochemical; details: nitrocefin reporter substrate, purified enzyme; read-out: Ki (CTX-M-14, NCF)
Sequence of CTX-M-14 (Q9L5C7 entry or part of it): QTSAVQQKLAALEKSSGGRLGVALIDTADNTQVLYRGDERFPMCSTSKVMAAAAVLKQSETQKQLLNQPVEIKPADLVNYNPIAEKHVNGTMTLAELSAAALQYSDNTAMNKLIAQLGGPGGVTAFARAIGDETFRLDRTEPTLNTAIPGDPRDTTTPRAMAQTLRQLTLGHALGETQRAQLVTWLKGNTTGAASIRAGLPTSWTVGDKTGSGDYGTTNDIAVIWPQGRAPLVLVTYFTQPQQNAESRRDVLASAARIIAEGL
Procedure: as §3

OXA-48 = OXA-48 (Klebsiella pneumoniae, UniProt Q6XEC0); assay: Inhibition of nitrocefin cleavage by purified OXA-48; assay type: biochemical; details: nitrocefin reporter substrate, purified enzyme; read-out: Ki (OXA-48, NCF)
Sequence of OXA-48 (Q6XEC0 23-265 limits assumed): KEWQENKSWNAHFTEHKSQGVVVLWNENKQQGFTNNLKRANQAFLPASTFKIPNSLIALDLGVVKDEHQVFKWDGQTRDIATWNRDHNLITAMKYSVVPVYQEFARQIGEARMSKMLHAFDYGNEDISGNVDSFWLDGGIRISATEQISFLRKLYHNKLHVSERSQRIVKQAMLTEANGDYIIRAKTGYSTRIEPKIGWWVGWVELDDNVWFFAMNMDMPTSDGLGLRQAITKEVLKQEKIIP
Procedure: as §3

ECL1002 = assay: Potentiation of aztreonam, strain ECL1002; assay type: cell-based; details: minimum BLI concentration inhibiting growth with 4 μg/mL aztreonam
ec308 (SHV-5) [7] = assay: Potentiation of aztreonam, strain ec308; assay type: cell-based; details: minimum BLI concentration inhibiting growth with 4 μg/mL aztreonam
KP1009 (CTX-M-15) [8] = assay: Potentiation of aztreonam, strain KP1009; assay type: cell-based
PAM1032/KPC-2 = assay: Biapenem potentiation in PAM1032/KPC-2 (MexAB-OprM overexpressed); assay type: cell-based, Pseudomonas aeruginosa; details: BLI potency to decrease biapenem MIC 64-fold, 32 to 0.5 μg/ml; efflux proficient strain
Procedure: (§4) Efflux of BLIs from Pseudomonas aeruginosa by the MexAB-OprM efflux pump was also evaluated. […] Due to expression of KPC-2 both strains became resistant to biapenem. […] Potency of BLIs to potentiate biapenem in these strains was determined. […] The ratio of MPC64 values for each BLI in PAM1032/KPC-2 (efflux proficient) and PAM1154/KPC-2 (efflux deficient) was determined to generate the Efflux Index (EI).

PAM1154/KPC-2 = assay: Biapenem potentiation in PAM1154/KPC-2 (MexAB-OprM lacking); assay type: cell-based, Pseudomonas aeruginosa
Procedure: as §4

What does the source list for `O=C(N[C@H]1Cc2cccc(C(=O)O)c2OB1O)c1cccnc1` [Compound 12, (R)-2-hydroxy-3-(nicotinamido)-3,4-dihydro-2H-benzo[e][1,2]oxaborinine-8-carboxylic acid]?
AZT MPC4 CTX-M-14 KP1005 (KP1005 (CTX-M-14)): Y (key: X = MIC of less than 1 μg/mL; Y = MIC of 1 μg/mL to 10 μg/mL; Z = MIC of greater than 10 μg/mL); AZT MPC4 CMY-6 EC1010 (EC1010 (CMY-6) [1]): Y (key: X = MIC of less than 1 μg/mL; Y = MIC of 1 μg/mL to 10 μg/mL; Z = MIC of greater than 10 μg/mL); IC50 (CathepsinA): 15000 to 500000 nM; Ki (SHV-12): < 1 nM; TIG MPC4 SHV-5 ec308 (ec308 (SHV-5) [2]): Y (Y = MIC of 1 μg/mL to 10 μg/mL); TIG MPC4 CMY-6 EC1010 (EC1010 (CMY-6) [3]): Y (key: X = MIC of less than 1 μg/mL; Y = MIC of 1 μg/mL to 10 μg/mL; Z = MIC of greater than 10 μg/mL); TIG MPC4 CTX-M-15 KP1009 (KP1009 (CTX-M-15) [4]): Y (Y = MIC of 1 μg/mL to 10 μg/mL); AZT MPC4 TEM-10 ec302 (ec302 (TEM-10) [5]): X (key: X = MIC of less than 1 μg/mL; Y = MIC of 1 μg/mL to 10 μg/mL; Z = MIC of greater than 10 μg/mL); IC50 (CathepsinG): < 15000 nM; Ki (P99): < 1 nM; TIG MPC4 TEM-10 ec302 (ec302 (TEM-10) [6]): Y (key: X = MIC of less than 1 μg/mL; Y = MIC of 1 μg/mL to 10 μg/mL; Z = MIC of greater than 10 μg/mL); AZT MPC4 K-2 KP1004 (KP1004 (K-2)): Y (Y = MIC of 1 μg/mL to 10 μg/mL); Ki (CTX-M-14): < 1 nM; Ki (OXA-48): < 1 nM; AZT MPC4 ECL1002 (ECL1002): X (X = MIC of less than 1 μg/mL); AZT MPC4 SHV-5 ec308 (ec308 (SHV-5) [7]): Y (Y = MIC of 1 μg/mL to 10 μg/mL); AZT MPC4 CTX-M-15 KP1009 (KP1009 (CTX-M-15) [8]): Y (key: X = MIC of less than 1 μg/mL; Y = MIC of 1 μg/mL to 10 μg/mL; Z = MIC of greater than 10 μg/mL); PAM1032/KPC-2 Biapenem MPC64 (PAM1032/KPC-2): Z (Z Greater than 40); PAM1154/KPC-2 Biapenem MPC64 (PAM1154/KPC-2): X (key: X = Less than 10; Y = 10 to 40; Z Greater than 40)
